Experimental data: US20110209228A1, “METHOD OF TREATMENT USING ANTIMICROBIAL COMPOSITION” (priority 2008, published 2011)

Assays:
E. coli DH5α = test: microbroth dilution method, peptide and antibiotic combination; assay type: cell-based
Experimental: To determine whether or not antimicrobial peptides as described herein act in a synergistic manner with antibiotic compounds, a microbroth dilution method was performed against E. coli DH5α performed according to the guidelines of the National Committee for Clinical Laboratory Standards.

E. coli TOP10 = test: growth inhibition screen by expression of the peptide in host bacteria (pBAD/gIIIA, L-arabinose induction, OD600); assay type: cell-based; conditions: E. coli TOP10, OD600 before and 4 hours after L-arabinose induction
[1] = antibiotic alone (—), E. coli DH5α
[2] = in combination with SEQ ID NO: 7, E. coli DH5α
[3] = in combination with SEQ ID NO: 8, E. coli DH5α

Row | Molecule | MIC of antibiotic (E. coli DH5α; [1]) | MIC of antibiotic (E. coli DH5α; [2]) | MIC of antibiotic (E. coli DH5α; [3]) | antimicrobial activity: inhibiting bacterial growth and/or killing bacteria on expression (in words) (E. coli TOP10)
1 | CC1(C)S[C@@H]2[C@H](NC(=O)[C@H](N)c3ccccc3)C(=O)N2[C@H]1C(=O)O [Ampicillin] | 2 µg/mL | 2 µg/mL | 4 µg/mL | –
2 | O=C(N[C@H](CO)[C@H](O)c1ccc([N+](=O)[O-])cc1)C(Cl)Cl [Chloramphenicol] | 4 µg/mL | 1 µg/mL | 2 µg/mL | –
3 | CN(C)[C@@H]1C(O)=C(C(N)=O)C(=O)[C@@]2(O)C(O)=C3C(=O)c4c(O)cccc4[C@@](C)(O)[C@H]3C[C@@H]12 [Tetracycline] | 2 µg/mL | 0.25 µg/mL | 0.5 µg/mL | –
4 | B1: peptide by mutagenesis based on a consensus sequence for antimicrobial C-terminal fragments of cathelicidin proteins (MVLGDLLRRVGGKFEEFFGKIRETIRTIRICSHLLLRGSSRSAAGTIWEFEAF; Antimicrobial peptide B1) | – | – | – | having antimicrobial activity
5 | E3: peptide by mutagenesis based on a consensus sequence for antimicrobial C-terminal fragments of cathelicidin proteins (MVLGGCLRKGGGRLVGMFGRFRATLKNLLDMLGRRIEG; Antimicrobial peptide E3) | – | – | – | having antimicrobial activity
6 | F4: peptide by mutagenesis based on a consensus sequence for antimicrobial C-terminal fragments of cathelicidin proteins (MVLGGRSGKVRERFRRIFERYEAKIRTFMEILAAPSQD; Antimicrobial peptide F4) | – | – | – | having antimicrobial activity
7 | F6: peptide by mutagenesis based on a consensus sequence for antimicrobial C-terminal fragments of cathelicidin proteins (MVLRGFLKRFGGKILRNRGRDGATLKDFLKMIATRIPH; Antimicrobial peptide F6) | – | – | – | having antimicrobial activity
8 | F7: peptide by mutagenesis based on a consensus sequence for antimicrobial C-terminal fragments of cathelicidin proteins (MVLGGFSRCRWLEEKLRDFMKNLVVRIAG; Antimicrobial peptide F7) | – | – | – | having antimicrobial activity
9 | F12: peptide by mutagenesis based on a consensus sequence for antimicrobial C-terminal fragments of cathelicidin proteins (MVIGDRFKKFRERLVELRGRNGARLRPLMNIMGGRSAG; Antimicrobial peptide F12) | – | – | – | having antimicrobial activity
10 | G9: peptide by mutagenesis based on a consensus sequence for antimicrobial C-terminal fragments of cathelicidin proteins (MVLGGFLRNVRWEIWKKGLSLFCQISYFVVRSSSRSAAGTIWEFEAF; Antimicrobial peptide G9) | – | – | – | having antimicrobial activity
11 | G10: peptide by mutagenesis based on a consensus sequence for antimicrobial C-terminal fragments of cathelicidin proteins (MVIRGLLKRGKGRILGLLGRNGKRLRAIMDMFRRRSQQ; Antimicrobial peptide G10) | – | – | – | having antimicrobial activity
12 | H6: peptide by mutagenesis based on a consensus sequence for antimicrobial C-terminal fragments of cathelicidin proteins (MVIGDCLRRVRGSLENTVRDLNQGLGILRLRW; Antimicrobial peptide H6) | – | – | – | having antimicrobial activity
13 | 27: antimicrobial peptide produced by mutagenesis based on SEQ ID NO: 7 and/or 8 (Antimicrobial peptide F6; Antimicrobial peptide 27) chain 1: MVLRGFLKRFGGKILRNRGRDGATLKDFLKMIATRIPH chain 2: MVKRGFGKRLRRKATKLGMILRRH | – | – | – | having antimicrobial activity
14 | B6: peptide by mutagenesis based on a consensus sequence for antimicrobial C-terminal fragments of cathelicidin proteins (Antimicrobial peptide B6) MVGIVSGEFRGSFEKCVGGIDKSLGILRLSWDLVLRGILRLSWDLVLRGSSRSAAGTIWEFEAF | – | – | – | having antimicrobial activity
